Experiments:
Format in all cases: biochemical
[1] = system: Bst DNA polymerase, Taq DNA polymerase, MMLV-RT; assay: Polymerase extension of 32P-labeled 12-mer primer on synthetic 30-mer template to full-length product; conditions: all three polymerases
Protocol: The ability of the Bacillus sterothermophilus (Bst) DNA polymerase (New England Biolabs), the Thermus aquaticus (Taq) DNA polymerase (Amersham) and the Moloney Murine Leukemia Virus reverse transcriptase (MMLV-RT) (Amersham) to incorporate the 2-amino-2′-deoxyadenosine-5′-triphosphate and 2-thiothymidine-5′-triphosphate into polynucleotides was tested using a synthetic 30-mer template and ^32P-labeled 12-mer primer (S.A. 130 Ci/mmol). (FIG. 2A). Extension reactions for each polymerase were performed in 0.65 ml pre-siliconized microfuge tubes containing the following components: (Bst) 20 mM Tris-Cl (pH 8.8 @ 25° C.), 10 mM KCl, 10 mM (NH4)2SO4, 2 mM MgSO4, 0.1% Triton-X100, 0.5 microM primer/template, 250 microM each dNTP and 0.15 units/microL Bst DNA polymerase; (Taq) 26 mM Tris-Cl (pH 9.5 @25° C.), 6.5 mM MgCl2, 0.5 microM primer/template, 250 microM each dNTP and 0.15 units/microL Taq DNA polymerase; (MMLV-RT) 50 mM Tris-Cl (pH 8.3 @ 25° C.) 75 mM KCl, 3 mM MgCl2, […], 0.5 microM primer/template, 250 microM each dNTP and 0.5 units/microL MMLV-RT. The reactions were incubated for 15 minutes at 65° C. for the Bst and Taq reactions and 42° C. for the MMLV-RT reaction. The reaction mixtures were separated by electrophoresis on 10% denaturing (7M urea) polyacrylamide gels and visualized by phosphorimaging methods.

Bst DNA polymerase = target: T1, Bst DNA polymerase (Geobacillus stearothermophilus, UniProt P52026); assay: Synthesis of single-stranded 56-mer by primer extension and lambda exonuclease digestion; conditions: substituted for dATP and dTTP; for full-length 56-mer product: 65° C., 30 minutes
T1 sequence (P52026 1-876): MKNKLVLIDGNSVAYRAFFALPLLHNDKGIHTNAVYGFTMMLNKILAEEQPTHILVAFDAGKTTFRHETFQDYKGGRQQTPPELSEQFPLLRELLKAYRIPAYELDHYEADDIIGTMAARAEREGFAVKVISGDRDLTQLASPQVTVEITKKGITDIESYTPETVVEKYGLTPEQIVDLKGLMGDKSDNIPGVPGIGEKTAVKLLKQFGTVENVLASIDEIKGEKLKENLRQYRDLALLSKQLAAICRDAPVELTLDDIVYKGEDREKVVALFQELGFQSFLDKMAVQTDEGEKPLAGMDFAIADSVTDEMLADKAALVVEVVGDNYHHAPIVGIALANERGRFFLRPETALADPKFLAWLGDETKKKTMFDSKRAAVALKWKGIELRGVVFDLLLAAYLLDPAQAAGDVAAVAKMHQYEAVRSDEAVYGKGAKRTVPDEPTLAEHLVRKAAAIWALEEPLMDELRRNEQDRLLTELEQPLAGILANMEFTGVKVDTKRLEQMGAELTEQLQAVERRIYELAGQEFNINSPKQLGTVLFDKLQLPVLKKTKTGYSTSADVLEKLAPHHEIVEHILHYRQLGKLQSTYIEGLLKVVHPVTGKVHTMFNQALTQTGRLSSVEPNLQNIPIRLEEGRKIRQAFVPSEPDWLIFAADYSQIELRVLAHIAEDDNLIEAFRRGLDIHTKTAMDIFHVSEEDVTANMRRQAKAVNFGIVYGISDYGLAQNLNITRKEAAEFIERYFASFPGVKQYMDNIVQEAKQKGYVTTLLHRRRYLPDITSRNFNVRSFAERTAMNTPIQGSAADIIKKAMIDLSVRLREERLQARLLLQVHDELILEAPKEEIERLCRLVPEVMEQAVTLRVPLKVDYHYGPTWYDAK
Protocol: Unstructured single-stranded UNA was generated by incorporating 2-aminoadenosine and 2-thiothymidine nucleotides using a 14-mer primer and 56-mer template (5′-phosphorylated) and Bst DNA polymerase followed by digestion of the DNA template with lambda exonuclease (FIG. 6). Ten microliter extension reactions were performed in 0.65 ml pre-siliconized microfuge tubes containing the following components: 20 mM Tris-Cl (pH 8.8 @ 25° C.), 10 mM KCl, 10 mM (NH4)2SO4, 2 mM MgSO4, 0.1% Triton-X100, 1.0 microM primer/template, 500 microM dGTP, 500 microM dATP (or 2-amino-2′-deoxyadenosine-5′-triphosphate), 500 microM dTTP (or 2-thiothymidine-5′-triphosphate), 200 microM ^32P--CTP and 0.8 units/microL Bst DNA polymerase. The reactions were incubated at 65° C. for 30 minutes, quenched with 5 mM EDTA, ethanol precipitated, dried and resuspended in 10 microL of 10 mM Tris-Cl pH 8.0. The 56-mer template was digested by incubating the resuspended samples with 10 units of lambda exonuclease (Strandase Kit™, (Novagen; Madison, Wis.)) for 30 minutes at 37° C. The reactions were quenched with 5 mM EDTA, ethanol precipitated, dried and resuspended in 10 microL of 10 mM Tris-Cl pH 8.0. The samples were then electrophoresed on 10% denaturing (7M urea) polyacrylamide gels and visualized using phosphorimaging methods.

[2] = target: T2, SuperScript II MMLV reverse transcriptase (Moloney murine leukemia virus, UniProt P03355, D1183G/D1242N/E1221Q); assay: Synthesis of fluorescently labeled cUNA from pBp-1 T7-RNA template with dCTP-Cy5; conditions: substituted for dATP and TTP; one hour
T2 construct: 200 units of SuperScript II MMLV reverse transcriptase (InVitrogen); purchased InVitrogen
Protocol: The ability to generate fluorescently labeled cUNAs was tested using the pBp-1 T7-RNA template and dCTP-Cy5 fluorescently labeled nucleotide analogue (Perkin-Elmer/NEN). The reverse transcriptase reactions (10.0 uL) were performed in 0.65 mL pre-siliconized microfuge tubes containing the following components: 50 mM Tris-Cl (pH 8.3), 75 mM KCl, 3.0 mM MgCl2, 4.5 mM DTT, 500 uM dGTP (or dITP), 500 uM dATP (or 2-amino-2′-deoxyadenosine-5′-triphosphate), 500 uM TTP (or 2-thiothymidine-5′-triphosphate), the indicated amounts of dCTP and dCTP-Cy5, 40 nM pBp-1 RNA template, 1.0 uM T16N2 primer, 1.0 unit of RNase Out (In Vitrogen), and 100 units of SuperScript II MMLV reverse transcriptase (In Vitrogen). The buffer components, RNA template, and primer were annealed by heating to 75° C. for 4 minutes and quickly cooled to room temperature. The dNTPs and RNase inhibitor were then added and the reactions were initiated by the addition of the reverse transcriptase and incubated at 42° C. At one and three hours, 5.0 uL aliquots were removed, mixed with 0.07 ug of RNase A, and incubated at room temperature for 30 minutes. The ribonucleased reaction mixtures were quenched with EDTA and 8 M urea and separated by electrophoresis on 5% polyacrylamide gels (19:1) containing 1×TBE and 9M urea. The fluorescently-labeled products were visualized using a phosphorimager.

SMILES	full-length product when both analogues are substituted for A and T in a single reaction mixture [1]	premature termination products (Bst DNA polymerase)	full-length 56-mer product (Bst DNA polymerase)	full-length fluorescently-labeled product [2]
Nc1nc(N)c2ncn([C@H]3C[C@H](O)[C@@H](COP(=O)(O)OP(=O)(O)OP(=O)(O)O)O3)c2n1 [2-amino-2′-deoxyadenosine-5′-triphosphate]	full-length product was generated	little if any	full-length 56-mer product is generated	full-length fluorescently-labeled product is generated
Cc1cn([C@H]2C[C@H](O)[C@@H](COP(=O)(O)OP(=O)(O)OP(=O)(O)O)O2)c(=S)[nH]c1=O [2-thiothymidine-5′-triphosphate]	full-length product was generated	little if any	full-length 56-mer product is generated	full-length fluorescently-labeled product is generated

Source: patent publication US20040086880A1, “Method of producing nucleic acid molecules with reduced secondary structure” (priority 1999, published 2004)
